Source: ChEMBL document CHEMBL2434841, “Computational neural network analysis of the affinity of 2-pyridyl-3,5-diaryl pyrroles analogs for the human glucagon receptor using density functional theory” (Med Chem Res, 2013)

molecular target: Glucagon receptor (Homo sapiens, UniProt P47871); experiment: Antagonist activity at human glucagon receptor
Sequence (P47871 whole entry): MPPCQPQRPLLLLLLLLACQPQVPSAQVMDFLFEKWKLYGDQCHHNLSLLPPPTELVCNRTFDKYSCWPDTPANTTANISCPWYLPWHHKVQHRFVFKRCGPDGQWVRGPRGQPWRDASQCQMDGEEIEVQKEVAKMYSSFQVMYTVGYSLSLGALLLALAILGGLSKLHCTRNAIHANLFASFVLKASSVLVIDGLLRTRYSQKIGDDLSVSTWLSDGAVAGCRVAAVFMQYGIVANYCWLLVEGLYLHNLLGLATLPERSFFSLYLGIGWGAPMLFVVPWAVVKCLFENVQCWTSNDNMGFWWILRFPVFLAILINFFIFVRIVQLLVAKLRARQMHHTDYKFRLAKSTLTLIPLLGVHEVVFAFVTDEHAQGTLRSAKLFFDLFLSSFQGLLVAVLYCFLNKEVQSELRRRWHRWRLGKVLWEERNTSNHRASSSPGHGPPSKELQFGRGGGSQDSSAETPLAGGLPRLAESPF

Row | IC50 [nM] | SMILES
1 | 2840 | CCCOc1ccccc1-c1cc(-c2ccc(Cl)cc2)[nH]c1-c1ccncc1
2 | 421 | COc1cccc(-c2cc(-c3ccc(Cl)cc3)[nH]c2-c2ccncc2)c1
3 | 301 | Clc1ccc(-c2cc(-c3ccc(Br)cc3)c(-c3ccncc3)[nH]2)cc1
4 | 1360 | CCc1ccc(-c2cc(-c3ccc(F)cc3)c(-c3ccncc3)[nH]2)cc1
5 | 421 | Fc1ccc(-c2cc(-c3cccc(Cl)c3)[nH]c2-c2ccncc2)cc1
6 | 2650 | COc1ccccc1-c1cc(-c2ccc(Cl)cc2)[nH]c1-c1ccncc1
7 | 50 | O=[N+]([O-])c1ccc(-c2cc(-c3ccc(F)cc3)c(-c3ccncc3)[nH]2)cc1
8 | 210 | Clc1ccc(-c2cc(-c3ccccc3)c(-c3ccncc3)[nH]2)cc1
9 | 321 | Cc1cc(-c2ccc(F)cc2)c(-c2ccncc2)[nH]1
10 | 1230 | CSc1ccc(C2=NC(c3ccncc3)=C(c3ccc(F)cc3)C2)cc1
11 | 180 | Fc1ccc(-c2cc(C3CCCCC3)[nH]c2-c2ccncc2)cc1
12 | 80.2 | Clc1ccc(-c2cc(-c3cccc(Br)c3)c(-c3ccncc3)[nH]2)cc1
13 | 1440 | CCCOc1ccc(Br)cc1-c1cc(-c2ccc(Cl)cc2)[nH]c1-c1ccncc1
14 | 5.31 | C[S+]([O-])c1ccc(-c2cc(-c3ccncc3)c(-c3ccc(F)cc3)[nH]2)cc1 (stereo not drawn)
15 | 44.1 | CSc1ccc(-c2cc(-c3ccncc3)c(-c3ccc(F)cc3)[nH]2)cc1

More lines, now with the values behind:

Row | SMILES | IC50 [nM]
16 | COc1ccc(-c2cc(-c3ccc(Cl)cc3)[nH]c2-c2ccncc2)cc1 | 1150
17 | Fc1ccc(-c2cc(-c3ccc(F)cc3)c(-c3ccncc3)[nH]2)cc1 | 340
18 | C=CCOc1ccccc1-c1cc(-c2ccc(Cl)cc2)[nH]c1-c1ccncc1 | 4740
19 | Fc1ccc(-c2cc(-c3ccccc3)[nH]c2-c2ccncc2)cc1 | 802
20 | N#Cc1ccc(-c2cc(-c3ccc(F)cc3)c(-c3ccncc3)[nH]2)cc1 | 50
21 | Nc1ccc(-c2cc(-c3ccc(F)cc3)c(-c3ccncc3)[nH]2)cc1 | 190
22 | Cc1ccc(-c2cc(-c3ccc(F)cc3)c(-c3ccncc3)[nH]2)cc1 | 1690
23 | Fc1ccc(-c2cc[nH]c2-c2ccncc2)cc1 | 160
24 | COc1ccc(-c2cc(-c3ccc(F)cc3)c(-c3ccncc3)[nH]2)cc1 | 2810
25 | Clc1ccc(-c2cc(-c3ccc(Cl)cc3)c(-c3ccncc3)[nH]2)cc1 | 160
26 | Fc1ccc(-c2cc(-c3ccc(Cl)cc3Cl)[nH]c2-c2ccncc2)cc1 | 421
27 | CCOC(=O)c1ccc(-c2cc(-c3ccc(F)cc3)c(-c3ccncc3)[nH]2)cc1 | 260
28 | C[S+]([O-])c1ccc(C2=NC(c3ccncc3)=C(c3ccc(F)cc3)C2)cc1 (stereo not drawn) | 671
29 | Fc1ccc(-c2cc(-c3ccc(Cl)cc3)[nH]c2-c2ccncc2)cc1 | 1400
30 | CCOc1ccccc1-c1cc(-c2ccc(Cl)cc2)[nH]c1-c1ccncc1 | 14200
31 | CC(C)COc1ccccc1-c1cc(-c2ccc(Cl)cc2)[nH]c1-c1ccncc1 | 3770
32 | O=C(O)c1ccc(-c2cc(-c3ccc(F)cc3)c(-c3ccncc3)[nH]2)cc1 | 90.2
33 | Clc1ccc(-c2cc(-c3ccccc3Br)c(-c3ccncc3)[nH]2)cc1 | 1000
